Reference: US5736629A, “Herbicide resistant rice” (priority 1997, dated 1998)

How the values were obtained:
[1] = test system: rice line ATCC 97523 (second resistance mechanism only); assay: Greenhouse test of plant vigor after imazethapyr, ATCC 97523; type: in vivo; conditions: for Rating of rice plant vigor: 36 days after treatment at 2-3 leaf stage, 10-point scale, 0 = dead plant, 10 = no visible injury
Source text: In the greenhouse tests, pots were planted with F3 seed from crosses between the two lines. Each pot was planted with seed from a single panicle from a single plant; each pot was therefore the equivalent of a headrow. A total of 140 pots were planted in this manner, along with 40 pots of various non-resistant genotypes for comparison. Imazethapyr was applied at the 2-3 leaf stage two weeks after planting, at rates equivalent to 0.063 lb. active ingredient (a.i.) per acre, 0.125 lb. a.i./acre, and 0.313 lb. a.i./acre.
Table 2 summarizes measurements taken 36 days after spraying rice at the 2-3 leaf stage of development.

[2] = test system: progeny of the mutant rice plant (ATCC 97523); assay: Subsequent greenhouse and field testing of progeny of the surviving plant; type: in vivo; conditions: herbicides applied either pre-emergence or post-emergence
Source text: (Imazamox is sold by American Cyanamid under the trade name Raptor, and has as active ingredient (+)-5-methoxymethyl-2-(4-isopropyl-4-methyl-5-oxo-2-imidazolin-2-yl) nicotinic acid. Imazameth is sold by American Cyanamid under the trade name Cadre, and has as active ingredient (±)-2-[4,5-dihydro-4-methyl-4-(1-methyl-ethyl)-5-oxo-1H-imidazol-2-yl]- 5-methyl-3-pyridinecarboxylicacid;alternatechemicalname (±)-2-(4-isopropyl-4-methyl-5-oxo-2-imidazolin-2-yl)-5-methylnicotinic acid). Imazapyr is sold by American Cyanamid under the trade name Arsenal, and has active ingredient 2-[4,5-dihydro-4-methyl-4-(1-methylethyl)-5-oxo-1H-imidazol-2-yl]-3-pyridinecarboxylic acid) This line is resistant to herbicides applied either pre-emergence or post-emergence.

[3] = target: T1, AHAS (acetohydroxyacid synthase) in enzyme extracts from normal rice variety Mercury (Oryza sativa subsp. japonica, UniProt Q6K2E8); assay: AHAS enzyme assay, extract from rice variety Mercury; type: biochemical
T1 construct: 40.0 grams (fresh weight) of tissue were extracted in the same manner for each of the three varieties; from tissue; host or cells: stem tissue of greenhouse-grown rice seedlings, variety Mercury (leaf blades removed)
T1 sequence (Q6K2E8 40-644 limits assumed): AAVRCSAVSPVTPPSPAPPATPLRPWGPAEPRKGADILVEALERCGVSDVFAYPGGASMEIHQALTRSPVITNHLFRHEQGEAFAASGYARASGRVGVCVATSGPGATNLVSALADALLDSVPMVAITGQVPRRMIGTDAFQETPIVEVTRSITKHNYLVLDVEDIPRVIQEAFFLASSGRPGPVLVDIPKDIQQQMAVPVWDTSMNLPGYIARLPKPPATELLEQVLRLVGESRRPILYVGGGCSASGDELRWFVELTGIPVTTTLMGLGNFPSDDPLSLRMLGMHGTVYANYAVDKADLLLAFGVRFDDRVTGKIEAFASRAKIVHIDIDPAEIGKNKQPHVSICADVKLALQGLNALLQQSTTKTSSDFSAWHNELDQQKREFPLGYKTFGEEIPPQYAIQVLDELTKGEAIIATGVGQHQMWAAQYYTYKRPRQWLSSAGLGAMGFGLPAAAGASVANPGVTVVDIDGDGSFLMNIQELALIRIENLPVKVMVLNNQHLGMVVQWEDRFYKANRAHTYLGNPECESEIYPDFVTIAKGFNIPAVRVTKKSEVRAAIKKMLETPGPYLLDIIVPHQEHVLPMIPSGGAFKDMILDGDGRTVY
Source text: The herbicide resistance of the AHAS enzyme from the ATCC 75295 rice line was compared to the resistance of the AHAS enzymes from the rice varieties "Lemont" and "Mercury," the varieties that were the ancestors of this rice line. The procedures used to assay the activity of acetohydroxyacid synthase were substantially as described in B. K. Singh et al., "Assay of Acetohydroxyacid Synthase," Analytical Biochemistry, vol. 171, pp. 173-179 (1988), except as noted. In the first paragraph of Singh's "Materials and Methods," instead of corn suspension culture cells, stem tissues from greenhouse-grown rice seedlings at the four-leaf stage of development were used. Leaf blades were removed, and 40.0 grams (fresh weight) of tissue were extracted in the same manner for each of the three varieties. […] Pursuit herbicide (imazethapyr) was included in the "standard reaction mixture" for the AHAS assay in the concentrations indicated in Table 1 below. Checks were made of direct acetoin formation during the enzyme assay. Each treatment was conducted with two replicates.

[4] = test system: resistant progeny row (rice line ATCC 75295); assay: Open-field spray screen of anther-culture progeny rows, resistant row; type: in vivo
Protocol: This resistant line was derived by conducting anther culture on the F2 progeny of a backcross made by pollinating a rice plant of the variety "Lemont" with pollen from the rice variety "Mercury," followed by a backcross using pollen from this hybrid to pollinate a plant of the variety "Mercury." The resulting backcross is described as Mercury//Lemont/Mercury. Anthers collected from a plant resulting from this backcross were plated on callus induction medium, and the resulting calli were transferred to plant regeneration media. The procedures used were generally as described in Croughan and Chu, "Rice (Oryza saliva L.): Establishment of Callus Cultures and the Regeneration of Plants" in Bajaj (Ed.), "Biotechnology in Agriculture and Forestry," pp. 19-37 (1991). Several regenerated plants were produced and grown to maturity in a greenhouse to produce seed. Progeny seed were planted in an open field, and herbicide applications were made using a garden tractor-mounted spray rig.
A set of 4,193 progeny rows derived from this anther culture procedure were planted in an open field, and were sprayed with 4 ounces per acre of Pursuit (1.00 ounce active ingredient imazethapyr per acre) at the four-leaf stage of seedling development. […]

CCc1cnc(C2=NC(C)(C(C)C)C(=O)N2)c(C(=O)O)c1 (racemic) [imazethapyr, (±)-2-[4,5-dihydro-4-methyl-4-(1-methylethyl)-5-oxo-1H-imidazol-2-yl]-5-ethyl-3-pyridinecarboxylic acid]
Rating of rice plant vigor ([1]; 0.063 lb. a.i./acre): 9.01 ± 0.59
Rating of rice plant vigor ([1]; 0.125 lb. a.i./acre): 5.71 ± 0.93
Rating of rice plant vigor ([1]; 0.313 lb. a.i./acre): about 4.0
Rating of rice plant vigor ([1]; 0.313 lb. a.i./acre, listed as Imazethapyr): 4.00 ± 0.32
Time to visible resumption of growth after herbicide application ([1]; ATCC 97523 plants, greenhouse test): about two weeks
Visible injury (in words) ([1]; plants with only the second resistance mechanism, 0.313 lb a.i./acre, 36 days after treatment): substantial injury
Resistance of the rice line (in words) [2]: resistance
activity at 0.1 µM ([3]; imazethapyr 0.1 μM): 100%
activity at 1 µM ([3]; imazethapyr 1 μM): 89%
activity at 10 µM ([3]; imazethapyr 10 μM): 64%
activity at 100 µM ([3]; imazethapyr 100 μM): 62%
Symptoms (in words) ([4]; 4 ounces per acre Pursuit (1.00 ounce a.i. per acre), four-leaf stage, open field): no apparent symptoms
Symptoms (in words) ([4]; second spray 8 ounces/acre Pursuit (2.00 ounce a.i. per acre), four weeks after the initial treatment): no apparent symptoms
